Source: patent US20200181284A1, “EPIGENETIC INHIBITORS FOR SENSITIZING HEMATOLOGIC OR OTHER MALIGNANCIES TO GLUCOCORTICOID THERAPY” (UNIVERSITY OF SOUTHERN CALIFORNIA, priority 2017, published 2020)

Key:
hG9a = biological target: T1, hG9a (Homo sapiens, UniProt Q96KQ7); test: Methylation of HA-hG9a in Cos-7 cells (pan met-K immunoprecipitation/immunoblot); assay type: cell-based, African green monkey; conditions: Cos-7 cells, 2 μM inhibitor, 24 h
T1 construct: transfected with a plasmid encoding full length HA-hG9a and treated with 2 μM UNC0646; expressed in transfected cells; host or cells: Cos-7
T1 sequence (Q96KQ7 1-1210): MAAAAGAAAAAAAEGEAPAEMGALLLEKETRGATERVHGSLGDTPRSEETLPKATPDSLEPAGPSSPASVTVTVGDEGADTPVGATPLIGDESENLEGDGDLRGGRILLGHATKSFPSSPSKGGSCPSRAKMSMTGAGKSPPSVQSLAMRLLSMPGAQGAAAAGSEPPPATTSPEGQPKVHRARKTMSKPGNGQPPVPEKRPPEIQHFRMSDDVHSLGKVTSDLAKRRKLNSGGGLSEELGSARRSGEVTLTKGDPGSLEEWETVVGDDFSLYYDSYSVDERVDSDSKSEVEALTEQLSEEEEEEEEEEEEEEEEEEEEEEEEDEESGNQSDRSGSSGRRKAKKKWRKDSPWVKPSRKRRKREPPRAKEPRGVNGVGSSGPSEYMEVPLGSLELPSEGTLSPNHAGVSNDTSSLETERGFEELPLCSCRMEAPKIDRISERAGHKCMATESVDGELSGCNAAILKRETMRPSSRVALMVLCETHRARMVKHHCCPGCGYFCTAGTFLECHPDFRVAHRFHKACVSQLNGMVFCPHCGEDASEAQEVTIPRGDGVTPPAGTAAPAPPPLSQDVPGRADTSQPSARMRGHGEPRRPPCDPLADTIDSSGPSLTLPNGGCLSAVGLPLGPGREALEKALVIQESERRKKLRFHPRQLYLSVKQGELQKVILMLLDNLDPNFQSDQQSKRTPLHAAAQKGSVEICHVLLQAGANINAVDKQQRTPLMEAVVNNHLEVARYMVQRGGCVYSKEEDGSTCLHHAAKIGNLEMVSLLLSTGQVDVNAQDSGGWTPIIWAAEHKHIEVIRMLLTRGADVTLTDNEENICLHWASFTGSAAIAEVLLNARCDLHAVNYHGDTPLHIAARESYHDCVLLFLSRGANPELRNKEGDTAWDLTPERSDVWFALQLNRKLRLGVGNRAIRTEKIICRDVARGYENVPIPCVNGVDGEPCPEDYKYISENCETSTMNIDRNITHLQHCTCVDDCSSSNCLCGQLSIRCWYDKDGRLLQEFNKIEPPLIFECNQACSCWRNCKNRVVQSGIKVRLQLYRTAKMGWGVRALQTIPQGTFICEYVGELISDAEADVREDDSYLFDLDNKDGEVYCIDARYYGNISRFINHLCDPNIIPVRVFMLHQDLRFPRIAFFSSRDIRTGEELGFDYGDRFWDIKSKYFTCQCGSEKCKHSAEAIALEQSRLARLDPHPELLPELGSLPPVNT
Procedure: Cells were transiently transfected (where indicated) using Lipofectamine 2000 (Invitrogen) with 5 μg each of the indicated plasmids according to the manufacturer's protocol. […] Protein extracts were incubated with 1 μg of the indicated primary antibodies overnight at 4° C. with shaking. Protein A/G Plus Agarose (Santa Cruz sc-2003) beads were added and the mixture was incubated 2 hr at 4° C. The immunoprecipitates were separated on SDS-PAGE. Immunoblotting was conducted with primary antibodies against HA epitope (3F10 Roche Applied Science); G9a (G6919), FLAG (F1804), (3-actin (A5441), or GAPDH (G9545) from Sigma; aurora kinase B (ab2254), HP1γ (ab10480), HP1γ (ab56978), phospho-593-HP1γ (ab45270) or pan methyllysine (ab23366) from Abcam; GR (sc-8992) from Santa Cruz; GLP (09-078), or pan phospho-threonine (AB1607) from Millipore; phospho-S211-GR (#4161), H3K9me3 (#13969), H3S10ph (#53348), Histone H3 (#4499) from Cell signaling; or E-cadherin (610182) from BD transduction laboratories. Secondary antibodies from Santa Cruz Biotechnology (anti-rat) and Promega (anti-rabbit and anti-mouse) were used for chemiluminescence detection using Super Signal West Dura (Thermo Scientific) for proteins with low expression levels and ECL prime detection reagent (Amersham) for all other proteins according to the manufacturers' instructions. In immunoprecipitation experiments 3% of the input of each sample was analyzed by immunoblot using the antibodies listed.
Lysates were immunoprecipitated (IP) with pan met-K antibody and immunoblotted with HA antibody (top), or the usage of the two antibodies was reversed (bottom). Expression of HA-tagged proteins and β-actin (loading control) in the unfractionated extracts is shown at the bottom (Input). For FIG. 17D, Cos-7 cells were transfected with a plasmid encoding full length HA-hG9a and treated with 2 μM UNC0646 or vehicle DMSO for 24 h. Lysates were immunoprecipitated with pan met-K antibody and immunoblotted with HA antibody (top), or the usage of the two antibodies was reversed (bottom).
Lysates were immunoprecipitated with pan met-K antibody and immunoblotted with HA antibody (top).

[1] = system: GR target genes in A549 cells; test: RT-qPCR of endogenous GR target genes in A549 cells; assay type: cell-based, human; conditions: 2 μM added 1 h prior to 100 nM dex
Procedure: RNA was isolated using Trizol (Invitrogen) according to the manufacturer's instructions. Reverse transcription reaction was performed using iScript (Biorad) according to specifications with 0.8 μg of total RNA as template. Quantitative PCR amplification of the resulting cDNA was performed on a Roche LightCycler 480 using SYBR green I master mix (Roche). mRNA levels were normalized to the level of β-actin mRNA. Primer sequences are specified below in Tables 6 and 7.
The results as shown in FIGS. 21A-21E generally highlight that G9a and GLP act as coactivators for a subset of endogenous GR target genes. FIG. 21A is an immunoblot showing GLP, G9a and tubulin protein levels in whole cell extracts from A549 cells that were transduced with a control lentivirus encoding a non-specific shRNA (shNS) or lentivirus encoding an shRNA targeting GLP (shGLP). […] Results shown are mean±SEM for five independent experiments. p-value was calculated using a paired t-test. *p≤0.05, **p≤0.01. For FIGS. 21F-1, 21F-2, 21F-3, 21F-4, 21F-5, 21F-6, 21F-7, and 21F-8, mRNA levels for the indicated GR target genes were determined as in FIGS. 21D-1, 21D-2, 21D-3, 21D-4, 21D-5, 21D-6, 21D-7, and 21D-8, using A549 cells which were not transfected with siRNA. […] Results shown are mean±SEM for at least four independent experiments. p-value was calculated using a paired t-test. *p≤0.05, **p≤0.01.

SMILES | pan-methyllysine antibody signal on wild type hG9a (hG9a) | induction of FKBP5, FOXO1 and CITED2 mRNAs by dex ([1]; G9a- and GLP-independent genes) | dex-induced CDH16, ENaCα, PPL, HSD11B2 and CDH1 mRNA levels ([1]; G9a/GLP-dependent genes)
COc1cc2c(NC3CCN(C4CCCCC4)CC3)nc(N3CCCN(C(C)C)CC3)nc2cc1OCCCN1CCCCC1 [UNC0646] | strongly decreased | – | –
COc1cc2c(Nc3ccc(NC(=O)c4ccccc4)cc3)ncnc2cc1OCCCN1CCOCC1 [ZM447439, N-[4-[[6-methoxy-7-(3-morpholin-4-ylpropoxy)quinazolin-4-yl]amino]phenyl]benzamide] | – | not significantly altered | significant increases
